Measured values published in ChEMBL document CHEMBL3244037, “6-Aryl-4H-s-triazolo[4,3-a][1,4]benzodiazepines. Influence of 1-substitution on pharmacological activity” (J Med Chem, 1979).

Legend:
Mus musculus [1] = assay: Anticonvulsant activity in ip dosed albino CF1 mouse assessed as protection against pentylenetetrazole-induced clonic convulsions; type: functional
Mus musculus [2] = assay: Hypothermic activity in ip dosed albino CF1 mouse assessed as effect on body temperature measured after 45 mins; type: functional; conditions: 0.75 h
Mus musculus [3] = assay: Inhibition of apomorphine-induced cage climbing in ip dosed albino CF1 mouse compound administered prior to challenge measured for 5 mins after 5 mins of challenge; type: functional
Mus musculus [4] = assay: Anticonvulsant activity in ip dosed albino CF1 mouse assessed as inhibition of bicucullin-induced tonic extensor convulsions; type: functional
Mus musculus [5] = assay: […] activity in ip dosed albino CF1 mouse assessed as potentiation of gamma-butyrolactone-induced sleep; type: functional
Mus musculus [6] = assay: Reduction of hypoxic stress in ip dosed albino CF1 mouse assessed as prolongation of hypoxic survival time; type: functional
Mus musculus [7] = assay: Inhibition of amphetamine aggregation toxicity in ip dosed albino CF1 mouse compound administered 1 hr prior to challenge measured after 2 hrs; type: functional
Mus musculus [8] = assay: Potentiation of yohimbine toxicity in ip dosed aggregated albino CF1 mouse; type: organism-based
Mus musculus [9] = assay: Inhibition of oxotremorine-induced hypothermia in ip dosed albino CF1 mouse; type: functional
Mus musculus [10] = assay: Potentiation of apomorphine-induced gnawing in ip dosed albino CF1 mouse; type: organism-based

| SMILES | ED50 (Mus musculus [1]) [mg/kg] | ED50 (Mus musculus [2]) [mg/kg] | ED50 (Mus musculus [3]) [mg/kg] | ED50 (Mus musculus [4]) [mg/kg] | ED50 (Mus musculus [5]) [mg/kg] | ED50 (Mus musculus [6]) [mg/kg] | ED50 (Mus musculus [7]) [mg/kg] | ED50 (Mus musculus [8]) [mg/kg] | ED50 (Mus musculus [9]) [mg/kg] | ED50 (Mus musculus [10]) [mg/kg] |
| --- | --- | --- | --- | --- | --- | --- | --- | --- | --- | --- |
| Nc1nnc2n1-c1ccc(Cl)cc1C(c1ccccc1)=NC2 | 14 | 9 | > 50 | 20 | 2 | > 50 | > 50 | > 50 | > 50 | > 50 |
| CSc1nnc2n1-c1ccc(Cl)cc1C(c1ccccc1)=NC2 | 8 | 10 | > 50 | 10 | 0.8 | 10 | > 50 | > 50 | > 50 | > 50 |
| FC(F)(F)c1nnc2n1-c1ccc(Cl)cc1C(c1ccccc1)=NC2 | 20 | > 50 | > 50 | > 50 | > 50 | > 50 | > 50 | > 50 | > 50 | > 50 |
| COC(=O)Cc1nnc2n1-c1ccc(Cl)cc1C(c1ccccc1)=NC2 | > 50 | > 50 | > 50 | > 50 | > 50 | > 50 | > 50 | > 50 | > 50 | > 50 |
| CN(C)C(=O)Cc1nnc2n1-c1ccc(Cl)cc1C(c1ccccc1)=NC2 | 5.6 | > 50 | > 50 | 40 | 10 | > 50 | > 50 | > 50 | > 50 | > 50 |
| OCCc1nnc2n1-c1ccc(Cl)cc1C(c1ccccc1)=NC2 | 4 | 30 | > 50 | > 50 | > 50 | 4 | > 50 | > 50 | > 50 | > 50 |
| CC1N=C(c2ccccc2)c2cc(Cl)ccc2-n2c(Br)nnc21 (stereo not given) | 3.7 | > 50 | > 50 | 1.9 | 3.1 | > 50 | > 50 | > 50 | > 50 | > 50 |
| Clc1ccccc1C1=NCc2nncn2-c2ccccc21 | > 50 | > 50 | > 50 | 42 | 12.5 | > 50 | > 50 | > 50 | > 50 | > 50 |
| CC1N=C(c2ccccc2)c2cc(Cl)ccc2-n2cnnc21 (stereo not given) | 3.7 | 10.5 | > 50 | 4.4 | 0.6 | 42 | > 50 | > 50 | 7.4 | > 50 |
| Clc1ccccc1C1=NCc2nnc(Br)n2-c2ccccc21 | 10.5 | > 50 | > 50 | 25 | 6.2 | 8.8 | > 50 | > 50 | > 50 | > 50 |
| Clc1ccc2c(c1)C(c1ccccc1)=NCc1nnc(N3CCN(c4ccccc4)CC3)n1-2 | > 50 | > 50 | > 50 | > 50 | > 50 | > 50 | > 50 | > 50 | > 50 | > 50 |
| OCCN1CCN(c2nnc3n2-c2ccc(Cl)cc2C(c2ccccc2)=NC3)CC1 | 42 | > 50 | > 50 | 8.8 | 1.6 | > 50 | > 50 | > 50 | > 50 | 25 |
| Clc1ccc2c(c1)C(c1ccccc1)=NCc1nnc(N3CCNCC3)n1-2 | > 50 | > 50 | > 50 | > 50 | > 50 | > 50 | > 50 | > 50 | 34 | > 50 |
| CN(C)CCN(C)c1nnc2n1-c1ccc(Cl)cc1C(c1ccccc1)=NC2 | 30 | 40 | > 50 | 42 | 12.5 | > 50 | > 50 | > 50 | > 50 | > 50 |
| CN1CCN(c2nnc3n2-c2ccc(Br)cc2C(c2ccccn2)=NC3)CC1 | 12.5 | > 50 | > 50 | 8.8 | 3.1 | 21 | > 50 | 35.4 | > 50 | 3.7 |
| CN1CCN(c2nnc3n2-c2ccccc2C(c2ccccc2Cl)=NC3)CC1 | 6.2 | 0.2 | 4.4 | > 25 | > 25 | 1.1 | > 25 | > 25 | > 25 | > 25 |
| CN1CCN(c2nnc3n2-c2ccccc2C(c2ccccc2)=NC3)CC1 | 14.9 | 12.5 | 25 | > 50 | > 50 | > 50 | > 50 | > 50 | 35.4 | > 50 |
| c1ccc(C2=NCc3nnc(N4CCOCC4)n3-c3ccccc32)cc1 | 9 | > 50 | > 50 | > 50 | 20 | > 50 | > 50 | > 50 | > 50 | > 50 |
| Clc1ccc2c(c1)C(c1ccccc1)=NCc1nnc(N3CCCC3)n1-2 | 4.5 | 40 | > 50 | 4 | 3 | > 50 | > 50 | > 50 | 30 | > 50 |
| CCN(CC)CCOc1nnc2n1-c1ccc(Cl)cc1C(c1ccccc1)=NC2 | 8.8 | > 50 | > 50 | 12.5 | 2.2 | 40 | > 50 | 42 | > 50 | > 50 |
| Clc1ccc2c(c1)C(c1ccccc1)=NCc1nnc(C(Cl)Cl)n1-2 | 8 | > 50 | > 50 | 10 | 3 | > 50 | > 50 | > 50 | > 50 | > 50 |
